Measurements as given in patent US20100099561A1, “HETEROBICYCLIC ALKYLTHIO-BRIDGED ISOXAZOLINES” (E.I. DU PONT DE NEMOURS AND COMPANY, priority 2008, published 2010).

Experiments:
Assay type in all cases: in vivo
[1] = system: pigweed (Amaranthus retroflexus); test: Test A postemergence, pigweed; settings: 0 to 100 scale (0 no effect, 100 complete control)
Method in brief: (§1)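 Visual injury rating, 0 = no effect to 100 = complete control, made roughly ten days after treatment by comparison with untreated controls. Preemergence: directed soil spray onto freshly planted loam/sand. Postemergence: foliar application at one- to two-leaf stage, 2–10 cm height.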

[2] = system: johnsongrass (Sorghum halepense); test: Test B preemergence, johnsongrass; settings: scale 0 to 100
Description: (§2) Seeds of plant species selected from blackgrass (Alopecurus myosuroides), downy bromegrass (Bromus tectorum), green foxtail (Setaria viridis), Italian ryegrass (Lolium multiflorum), wheat (Triticum aestivum), wild oat (Avena fatua), catchweed bedstraw (Galium aparine), bermudagrass (Cynodon dactylon), Surinam grass (Brachiaria decumbens), cocklebur (Xanthium strumarium), corn (Zea mays), large crabgrass (Digitaria sanguinalis), woolly cupgrass (Eriochloa villosa), giant foxtail (Setaria faberii), goosegrass (Eleusine indica), johnsongrass (Sorghum halepense), kochia (Kochia scoparia), lambsquarters (Chenopodium album), morningglory (Ipomoea coccinea), nightshade (eastern black nightshade, Solanum ptycanthum), yellow nutsedge (Cyperus esculentus), pigweed (Amaranthus retroflexus), ragweed (common ragweed, Ambrosia elatior), soybean (Glycine max), sunflower (common oilseed sunflower, Helianthus annuus), Russian thistle (Salsola kali), and velvetleaf (Abutilon theophrasti) were planted into a blend of loam soil and sand and treated preemergence with test compounds formulated in a non-phytotoxic solvent mixture which included a surfactant. Treated plants and controls were maintained in a greenhouse for 13 to 15 days, after which time all species were compared to controls and visually evaluated. Plant response ratings, summarized in Table B, are based on a scale of 0 to 100 where 0 is no effect and 100 is complete control. A dash (-) response means no test result.

[3] = system: goosegrass (Eleusine indica); test: Test B preemergence, goosegrass; settings: scale 0 to 100
Description: as §2

[4] = system: wheat (Triticum aestivum); test: Test A postemergence, wheat; settings: 0 to 100 scale (0 no effect, 100 complete control)
Method in brief: as §1

wild oat (Avena fatua) = test: Test B preemergence, wild oat; settings: scale 0 to 100
Description: as §2

rice (Oryza sativa) = test: Test B flooded paddy test, rice; settings: Flood, scale 0 to 100
Method in brief: (§3)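 Rice, umbrella sedge, ducksalad and barnyardgrass at 2-leaf stage; pots flooded to 3 cm, compounds applied into paddy water, depth held throughout. Greenhouse 13 to 15 days, then visual rating vs untreated controls on 0–100 scale (0 no effect, 100 complete control); dash means no test result.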

[5] = system: giant foxtail (Setaria faberii); test: Test B preemergence, giant foxtail; settings: scale 0 to 100
Description: as §2

[6] = system: pigweed (Amaranthus retroflexus); test: Test B preemergence, pigweed; settings: scale 0 to 100
Description: as §2

[7] = system: morningglory (Ipomoea coccinea); test: Test B preemergence, morningglory; settings: scale 0 to 100
Description: as §2

[8] = system: blackgrass (Alopecurus myosuroides); test: Test B preemergence, blackgrass; settings: scale 0 to 100
Description: as §2

[9] = system: lambsquarters (Chenopodium album); test: Test B preemergence, lambsquarters; settings: scale 0 to 100
Description: as §2

[10] = system: ragweed (common ragweed, Ambrosia elatior); test: Test B preemergence, ragweed; settings: scale 0 to 100
Description: as §2

[11] = system: velvetleaf (Abutilon theophrasti); test: Test A postemergence, velvetleaf; settings: 0 to 100 scale (0 no effect, 100 complete control)
Method in brief: as §1

[12] = system: wheat (Triticum aestivum); test: Test B preemergence, wheat; settings: Preemergence, scale 0 to 100
Description: as §2

corn (Zea mays) = test: Test A postemergence, corn; settings: 0 to 100 scale (0 no effect, 100 complete control)
Method in brief: as §1

[13] = system: sunflower (common oilseed sunflower, Helianthus annuus); test: Test B preemergence, sunflower; settings: Preemergence, scale 0 to 100
Description: as §2

[14] = system: ducksalad (Heteranthera limosa); test: Test B flooded paddy test, ducksalad; settings: Flood, scale 0 to 100
Method in brief: as §3

[15] = system: yellow nutsedge (Cyperus esculentus); test: Test B preemergence, yellow nutsedge; settings: scale 0 to 100
Description: as §2

[16] = system: morningglory (Ipomoea spp.); test: Test A postemergence, morningglory; settings: 0 to 100 scale (0 no effect, 100 complete control)
Method in brief: as §1

CC1(C)CC(S(=O)(=O)Cc2c(C(F)(F)F)nc3n(c2=O)CCO3)=NO1 [Compound 2, 6-[[(4,5-dihydro-5,5-dimethyl-3-isoxazolyl)sulfonyl]methyl]-2,3-dihydro-7-(trifluoromethyl)-5H-oxazolo[3,2-α]pyrimidin-5-one]
Plant response rating, Pigweed ([1]; 125 g ai/ha): 20
Plant response rating, Pigweed ([1]; 500 g ai/ha): 60
Plant response rating, Johnsongrass ([2]; 8 g ai/ha): 0
Plant response rating, Johnsongrass ([2]; 16 g ai/ha): 10
Plant response rating, Johnsongrass ([2]; 31 g ai/ha): 30
Plant response rating, Johnsongrass ([2]; 62 g ai/ha): 80
Plant response rating, Goosegrass ([3]; 8 g ai/ha): 0
Plant response rating, Goosegrass ([3]; 16 g ai/ha): 65
Plant response rating, Goosegrass ([3]; 31 g ai/ha): 75
Plant response rating, Goosegrass ([3]; 62 g ai/ha): 80
Plant response rating, Wheat ([4]; 125 g ai/ha): 0
Plant response rating, Wheat ([4]; 500 g ai/ha): 60
Plant response rating, Oat, Wild (wild oat (Avena fatua); 8 g ai/ha): 0
Plant response rating, Oat, Wild (wild oat (Avena fatua); 16 g ai/ha): 0
Plant response rating, Oat, Wild (wild oat (Avena fatua); 31 g ai/ha): 0
Plant response rating, Oat, Wild (wild oat (Avena fatua); 62 g ai/ha): 25
Plant response rating, Rice (rice (Oryza sativa); 62 g ai/ha): 0
Plant response rating, Rice (rice (Oryza sativa); 250 g ai/ha): 0
Plant response rating, Foxtail, Giant ([5]; 8 g ai/ha): 0
Plant response rating, Foxtail, Giant ([5]; 16 g ai/ha): 50
Plant response rating, Foxtail, Giant ([5]; 31 g ai/ha): 70
Plant response rating, Foxtail, Giant ([5]; 62 g ai/ha): 98
Plant response rating, Pigweed ([6]; 8 g ai/ha): 0
Plant response rating, Pigweed ([6]; 16 g ai/ha): 0
Plant response rating, Pigweed ([6]; 31 g ai/ha): 0
Plant response rating, Pigweed ([6]; 62 g ai/ha): 0
Plant response rating, Morningglory ([7]; 8 g ai/ha): 0
Plant response rating, Morningglory ([7]; 16 g ai/ha): 0
Plant response rating, Morningglory ([7]; 31 g ai/ha): 0
Plant response rating, Morningglory ([7]; 62 g ai/ha): 0
Plant response rating, Blackgrass ([8]; 8 g ai/ha): 0
Plant response rating, Blackgrass ([8]; 16 g ai/ha): 0
Plant response rating, Blackgrass ([8]; 31 g ai/ha): 0
Plant response rating, Blackgrass ([8]; 62 g ai/ha): 50
Plant response rating, Lambsquarters ([9]; 8 g ai/ha): 0
Plant response rating, Lambsquarters ([9]; 31 g ai/ha): 0
Plant response rating, Lambsquarters ([9]; 62 g ai/ha): 0
Plant response rating, Ragweed ([10]; 31 g ai/ha): 0
Plant response rating, Ragweed ([10]; 62 g ai/ha): 20
Plant response rating, Velvetleaf ([11]; 125 g ai/ha): 30
Plant response rating, Velvetleaf ([11]; 500 g ai/ha): 60
Plant response rating, Wheat ([12]; 16 g ai/ha): 0
Plant response rating, Wheat ([12]; 31 g ai/ha): 0
Plant response rating, Wheat ([12]; 62 g ai/ha): 0
Plant response rating, Corn (corn (Zea mays); 125 g ai/ha): 0
Plant response rating, Corn (corn (Zea mays); 500 g ai/ha): 50
Plant response rating, Sunflower ([13]; 16 g ai/ha): 0
Plant response rating, Sunflower ([13]; 31 g ai/ha): 0
Plant response rating, Sunflower ([13]; 62 g ai/ha): 0
Plant response rating, Ducksalad ([14]; 62 g ai/ha): 0
Plant response rating, Ducksalad ([14]; 250 g ai/ha): 0
Plant response rating, Nutsedge, Yellow ([15]; 8 g ai/ha): 0
Plant response rating, Nutsedge, Yellow ([15]; 16 g ai/ha): 0
Plant response rating, Nutsedge, Yellow ([15]; 31 g ai/ha): 0
Plant response rating, Nutsedge, Yellow ([15]; 62 g ai/ha): 0
Plant response rating, Morningglory ([16]; 125 g ai/ha): 30
Plant response rating, Morningglory ([16]; 500 g ai/ha): 70

CC1(C)CC(S(=O)(=O)Cc2c(C(F)(F)C(F)(F)F)nc3n(c2=O)CCC3)=NO1 [Compound 22]
Plant response rating, Pigweed ([1]; 125 g ai/ha): 0
Plant response rating, Pigweed ([1]; 500 g ai/ha): 40
Plant response rating, Johnsongrass ([2]; 16 g ai/ha): 0
Plant response rating, Johnsongrass ([2]; 31 g ai/ha): 10
Plant response rating, Johnsongrass ([2]; 62 g ai/ha): 65
Plant response rating, Johnsongrass ([2]; 125 g ai/ha): 98
Plant response rating, Goosegrass ([3]; 16 g ai/ha): 30
Plant response rating, Goosegrass ([3]; 31 g ai/ha): 80
Plant response rating, Goosegrass ([3]; 62 g ai/ha): 100
Plant response rating, Goosegrass ([3]; 125 g ai/ha): 100
Plant response rating, Wheat ([4]; 125 g ai/ha): 20
Plant response rating, Wheat ([4]; 500 g ai/ha): 50
Plant response rating, Oat, Wild (wild oat (Avena fatua); 16 g ai/ha): 0
Plant response rating, Oat, Wild (wild oat (Avena fatua); 31 g ai/ha): 0
Plant response rating, Oat, Wild (wild oat (Avena fatua); 62 g ai/ha): 30
Plant response rating, Oat, Wild (wild oat (Avena fatua); 125 g ai/ha): 40
Plant response rating, Rice (rice (Oryza sativa); 62 g ai/ha): 0
Plant response rating, Rice (rice (Oryza sativa); 250 g ai/ha): 10
Plant response rating, Foxtail, Giant ([5]; 16 g ai/ha): 50
Plant response rating, Foxtail, Giant ([5]; 31 g ai/ha): 50
Plant response rating, Foxtail, Giant ([5]; 62 g ai/ha): 90
Plant response rating, Foxtail, Giant ([5]; 125 g ai/ha): 100
Plant response rating, Pigweed ([6]; 31 g ai/ha): 0
Plant response rating, Pigweed ([6]; 125 g ai/ha): 100
Plant response rating, Morningglory ([7]; 16 g ai/ha): 0
Plant response rating, Morningglory ([7]; 31 g ai/ha): 0
Plant response rating, Morningglory ([7]; 62 g ai/ha): 70
Plant response rating, Morningglory ([7]; 125 g ai/ha): 100
Plant response rating, Blackgrass ([8]; 16 g ai/ha): 0
Plant response rating, Blackgrass ([8]; 31 g ai/ha): 40
Plant response rating, Blackgrass ([8]; 62 g ai/ha): 40
Plant response rating, Blackgrass ([8]; 125 g ai/ha): 98
Plant response rating, Lambsquarters ([9]; 16 g ai/ha): 0
Plant response rating, Lambsquarters ([9]; 31 g ai/ha): 0
Plant response rating, Lambsquarters ([9]; 62 g ai/ha): 70
Plant response rating, Lambsquarters ([9]; 125 g ai/ha): 100
Plant response rating, Ragweed ([10]; 16 g ai/ha): 0
Plant response rating, Ragweed ([10]; 31 g ai/ha): 0
Plant response rating, Ragweed ([10]; 62 g ai/ha): 30
Plant response rating, Ragweed ([10]; 125 g ai/ha): 50
Plant response rating, Velvetleaf ([11]; 125 g ai/ha): 20
Plant response rating, Velvetleaf ([11]; 500 g ai/ha): 60
Plant response rating, Wheat ([12]; 16 g ai/ha): 0
Plant response rating, Wheat ([12]; 31 g ai/ha): 0
Plant response rating, Wheat ([12]; 62 g ai/ha): 0
Plant response rating, Wheat ([12]; 125 g ai/ha): 10
Plant response rating, Corn (corn (Zea mays); 125 g ai/ha): 0
Plant response rating, Corn (corn (Zea mays); 500 g ai/ha): 0
Plant response rating, Sunflower ([13]; 16 g ai/ha): 0
Plant response rating, Sunflower ([13]; 31 g ai/ha): 0
Plant response rating, Sunflower ([13]; 62 g ai/ha): 0
Plant response rating, Sunflower ([13]; 125 g ai/ha): 50
Plant response rating, Ducksalad ([14]; 62 g ai/ha): 0
Plant response rating, Ducksalad ([14]; 250 g ai/ha): 0
Plant response rating, Nutsedge, Yellow ([15]; 16 g ai/ha): 0
Plant response rating, Nutsedge, Yellow ([15]; 31 g ai/ha): 10
Plant response rating, Nutsedge, Yellow ([15]; 62 g ai/ha): 60
Plant response rating, Nutsedge, Yellow ([15]; 125 g ai/ha): 80
Plant response rating, Morningglory ([16]; 125 g ai/ha): 0
Plant response rating, Morningglory ([16]; 500 g ai/ha): 50
